Assay results: ChEMBL document CHEMBL5537115, “New broad-spectrum and potent antibacterial agents with dual-targeting mechanism: Promoting FtsZ polymerization and disrupting bacterial membranes” (Eur J Med Chem, 2024)
Calls of active or inactive are those of the source. The calls are words filed in the database; no cut-off is given here.

How the values were obtained:
[1] = tested on: Staphylococcus aureus; experiment: Disruption of inner membrane in Staphylococcus aureus ATCC25923 by PI staining based analysis; format: functional, organism-based; details: time 12.0 min, TDE = time-dependent effect
[2] = tested on: Bacillus subtilis; experiment: Antibacterial activity against penicillin-susceptible Bacillus subtilis ATCC9372 assessed as bacterial growth inhibition incubated for 20 hrs by CLSI based broth microdilution method; format: functional
[3] = tested on: Staphylococcus epidermidis; experiment: Antibacterial activity against penicillin-resistant Staphylococcus epidermidis clinical isolate assessed as bacterial growth inhibition incubated for 20 hrs by CLSI based broth microdilution method; format: functional
[4] = tested on: Staphylococcus aureus; experiment: Disruption of inner membrane in Staphylococcus aureus ATCC25923 at 0.5 ug/ml measured after 12 mins by PI staining based analysis; format: functional, organism-based; details: dose 0.5 µg/ml
[5] = tested on: Klebsiella pneumoniae; experiment: Antibacterial activity against Klebsiella pneumoniae ATCC BAA-1902 assessed as bacterial growth inhibition incubated for 20 hrs by CLSI based broth microdilution method; format: functional
[6] = tested on: Enterococcus faecalis; experiment: Antibacterial activity against vancomycin-resistant Enterococcus faecalis ATCC51299 assessed as bacterial growth inhibition incubated for 20 hrs by CLSI based broth microdilution method; format: functional
[7] = tested on: Staphylococcus aureus; experiment: Antibacterial activity against methicillin-resistant Staphylococcus aureus ATCC43300 incubated for 18 to 20 hrs; format: functional; details: time 18-20 hrs
[8] = tested on: Escherichia coli; experiment: Disruption of inner membrane in Escherichia coli ATCC25922 measured after 12 mins by PI staining based analysis; format: functional, organism-based
[9] = tested on: Staphylococcus aureus; experiment: Inhibition of biofilm formation of Staphylococcus aureus ATCC25923 at 0.5 ug/ml incubated for 20 hrs by crystal violet staining based analysis relative to control; format: functional
[10] = tested on: Staphylococcus aureus; experiment: Bactericidal activity against Staphylococcus aureus ATCC25923 measured for 24 hrs by time-kill assay; format: functional, organism-based; details: dose 0.125-0.5 µg/ml
[11] = tested on: Streptococcus pyogenes; experiment: Antibacterial activity against erythromycin-resistant Streptococcus pyogenes 2 clinical isolate assessed as bacterial growth inhibition incubated for 20 hrs by CLSI based broth microdilution method; format: functional
[12] = tested on: Staphylococcus aureus; experiment: Bactericidal activity against Staphylococcus aureus ATCC25923 assessed as log reduction in bacterial growth at 0.125 ug/ml measured for 6 hrs by time-kill assay; format: functional; details: dose 0.125 µg/ml
[13] = tested on: Escherichia coli; experiment: Disruption of outer membrane in Escherichia coli ATCC25922 measured after 10 mins by NPN dye based analysis; format: functional, organism-based; details: dose 4-16 µg/ml
[14] = tested on: Escherichia coli; experiment: Antibacterial activity against wild-type Escherichia coli BW25113 assessed as bacterial growth inhibition incubated for 20 hrs by CLSI based broth microdilution method; format: functional
[15] = tested on: Staphylococcus aureus; experiment: Antibacterial activity against Staphylococcus aureus clinical isolate assessed as bacterial growth inhibition incubated for 20 hrs by CLSI based broth microdilution method; format: functional
[16] = tested on: Staphylococcus aureus; experiment: Selectivity ratio of MBC for Staphylococcus aureus clinical isolate to MIC for Staphylococcus aureus clinical isolate; format: functional
[17] = tested on: Staphylococcus aureus; experiment: Antibacterial activity against Staphylococcus aureus clinical isolate incubated for 18 to 24 hrs; format: functional; details: time 18-24 hrs

## C[n+]1cc(-c2ccccc2)c(/C=C/c2ccc(C(C)(C)C)cc2)cc1-c1ccc(C(C)(C)C)cc1.[I-]
[1]
  Activity: Tde
[2]
  MIC: 0.125 µg/mL
[3]
  MIC: 0.5 µg/mL
[4]
  Activity: Active
[5]
  MIC: 4 µg/mL
[6]
  MIC: 0.5 µg/mL
[7]
  MBC: 0.5 µg/mL
[8]
  Activity: Dose-Dependent Effect
[9]
  inhibition at 0.5 µg/mL: 6.06%
[10]
  Activity: Dose-Dependent Effect
[11]
  MIC: 2 µg/mL
[12]
  Activity: 3.059 log10CFU/ml
[13]
  Activity: Dose-Dependent Effect
[14]
  MIC: 2 µg/mL
[15]
  MIC: 0.062 µg/mL
[16]
  Ratio: 2
[17]
  MBC: 0.125 µg/mL
